Assay results reported in patent US5889029A, “Use of cotinine in treating psychiatric disorders” (priority 1997, dated 1999).
Like-named read-outs stand apart in the source and are kept apart here.

Columns and labels:
[1] = target: T1, nicotinic binding site (Rattus norvegicus, UniProt P09483+P12390); assay: biochemical; details: Rat cortical membranes, [3H]N-methylcarbamylcholine iodide 2.5 nM, read-out: Receptor Binding Activity Percent Inhibition Average (N = 2)
T1 construct: Rat cortical membranes; from tissue; host or cells: rat cortical membranes

[2] = in vivo, cited from earlier work
[3] = target: T2, Histamine (H3) (Rattus norvegicus, UniProt Q9QYN8); assay: Histamine (H3) Binding Assay; details: Rat forebrain membranes, [3H]N^a-methylhistamine 0.2 nM, read-out: Receptor Binding Activity Percent Inhibition Average (N = 2)
T2 construct: Rat forebrain membranes; from tissue; host or cells: rat forebrain membranes
T2 sequence (Q9QYN8 whole entry): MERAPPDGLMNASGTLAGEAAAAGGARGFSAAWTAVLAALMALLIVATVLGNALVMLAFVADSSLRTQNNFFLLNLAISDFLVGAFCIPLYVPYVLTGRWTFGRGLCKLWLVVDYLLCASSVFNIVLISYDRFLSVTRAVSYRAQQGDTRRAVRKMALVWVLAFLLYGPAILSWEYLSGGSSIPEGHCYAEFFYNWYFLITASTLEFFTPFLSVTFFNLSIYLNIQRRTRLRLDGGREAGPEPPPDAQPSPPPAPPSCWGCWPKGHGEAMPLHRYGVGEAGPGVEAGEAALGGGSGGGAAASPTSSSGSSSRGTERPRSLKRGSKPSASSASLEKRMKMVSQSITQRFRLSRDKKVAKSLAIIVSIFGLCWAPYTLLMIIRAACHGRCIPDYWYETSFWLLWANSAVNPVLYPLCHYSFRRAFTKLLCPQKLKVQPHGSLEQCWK

[4] = target: T3, Inositol Triphosphate (IP3) (Rattus norvegicus, UniProt P29994); assay: Inositol Triphosphate (IP3) Binding Assay; details: Rat cerebellar membranes, [3H]IP3 4.0 nM, read-out: Receptor Binding Activity Percent Inhibition Average (N = 2)
T3 construct: Rat cerebellar membranes; from tissue; host or cells: rat cerebellar membranes
T3 sequence (P29994 whole entry): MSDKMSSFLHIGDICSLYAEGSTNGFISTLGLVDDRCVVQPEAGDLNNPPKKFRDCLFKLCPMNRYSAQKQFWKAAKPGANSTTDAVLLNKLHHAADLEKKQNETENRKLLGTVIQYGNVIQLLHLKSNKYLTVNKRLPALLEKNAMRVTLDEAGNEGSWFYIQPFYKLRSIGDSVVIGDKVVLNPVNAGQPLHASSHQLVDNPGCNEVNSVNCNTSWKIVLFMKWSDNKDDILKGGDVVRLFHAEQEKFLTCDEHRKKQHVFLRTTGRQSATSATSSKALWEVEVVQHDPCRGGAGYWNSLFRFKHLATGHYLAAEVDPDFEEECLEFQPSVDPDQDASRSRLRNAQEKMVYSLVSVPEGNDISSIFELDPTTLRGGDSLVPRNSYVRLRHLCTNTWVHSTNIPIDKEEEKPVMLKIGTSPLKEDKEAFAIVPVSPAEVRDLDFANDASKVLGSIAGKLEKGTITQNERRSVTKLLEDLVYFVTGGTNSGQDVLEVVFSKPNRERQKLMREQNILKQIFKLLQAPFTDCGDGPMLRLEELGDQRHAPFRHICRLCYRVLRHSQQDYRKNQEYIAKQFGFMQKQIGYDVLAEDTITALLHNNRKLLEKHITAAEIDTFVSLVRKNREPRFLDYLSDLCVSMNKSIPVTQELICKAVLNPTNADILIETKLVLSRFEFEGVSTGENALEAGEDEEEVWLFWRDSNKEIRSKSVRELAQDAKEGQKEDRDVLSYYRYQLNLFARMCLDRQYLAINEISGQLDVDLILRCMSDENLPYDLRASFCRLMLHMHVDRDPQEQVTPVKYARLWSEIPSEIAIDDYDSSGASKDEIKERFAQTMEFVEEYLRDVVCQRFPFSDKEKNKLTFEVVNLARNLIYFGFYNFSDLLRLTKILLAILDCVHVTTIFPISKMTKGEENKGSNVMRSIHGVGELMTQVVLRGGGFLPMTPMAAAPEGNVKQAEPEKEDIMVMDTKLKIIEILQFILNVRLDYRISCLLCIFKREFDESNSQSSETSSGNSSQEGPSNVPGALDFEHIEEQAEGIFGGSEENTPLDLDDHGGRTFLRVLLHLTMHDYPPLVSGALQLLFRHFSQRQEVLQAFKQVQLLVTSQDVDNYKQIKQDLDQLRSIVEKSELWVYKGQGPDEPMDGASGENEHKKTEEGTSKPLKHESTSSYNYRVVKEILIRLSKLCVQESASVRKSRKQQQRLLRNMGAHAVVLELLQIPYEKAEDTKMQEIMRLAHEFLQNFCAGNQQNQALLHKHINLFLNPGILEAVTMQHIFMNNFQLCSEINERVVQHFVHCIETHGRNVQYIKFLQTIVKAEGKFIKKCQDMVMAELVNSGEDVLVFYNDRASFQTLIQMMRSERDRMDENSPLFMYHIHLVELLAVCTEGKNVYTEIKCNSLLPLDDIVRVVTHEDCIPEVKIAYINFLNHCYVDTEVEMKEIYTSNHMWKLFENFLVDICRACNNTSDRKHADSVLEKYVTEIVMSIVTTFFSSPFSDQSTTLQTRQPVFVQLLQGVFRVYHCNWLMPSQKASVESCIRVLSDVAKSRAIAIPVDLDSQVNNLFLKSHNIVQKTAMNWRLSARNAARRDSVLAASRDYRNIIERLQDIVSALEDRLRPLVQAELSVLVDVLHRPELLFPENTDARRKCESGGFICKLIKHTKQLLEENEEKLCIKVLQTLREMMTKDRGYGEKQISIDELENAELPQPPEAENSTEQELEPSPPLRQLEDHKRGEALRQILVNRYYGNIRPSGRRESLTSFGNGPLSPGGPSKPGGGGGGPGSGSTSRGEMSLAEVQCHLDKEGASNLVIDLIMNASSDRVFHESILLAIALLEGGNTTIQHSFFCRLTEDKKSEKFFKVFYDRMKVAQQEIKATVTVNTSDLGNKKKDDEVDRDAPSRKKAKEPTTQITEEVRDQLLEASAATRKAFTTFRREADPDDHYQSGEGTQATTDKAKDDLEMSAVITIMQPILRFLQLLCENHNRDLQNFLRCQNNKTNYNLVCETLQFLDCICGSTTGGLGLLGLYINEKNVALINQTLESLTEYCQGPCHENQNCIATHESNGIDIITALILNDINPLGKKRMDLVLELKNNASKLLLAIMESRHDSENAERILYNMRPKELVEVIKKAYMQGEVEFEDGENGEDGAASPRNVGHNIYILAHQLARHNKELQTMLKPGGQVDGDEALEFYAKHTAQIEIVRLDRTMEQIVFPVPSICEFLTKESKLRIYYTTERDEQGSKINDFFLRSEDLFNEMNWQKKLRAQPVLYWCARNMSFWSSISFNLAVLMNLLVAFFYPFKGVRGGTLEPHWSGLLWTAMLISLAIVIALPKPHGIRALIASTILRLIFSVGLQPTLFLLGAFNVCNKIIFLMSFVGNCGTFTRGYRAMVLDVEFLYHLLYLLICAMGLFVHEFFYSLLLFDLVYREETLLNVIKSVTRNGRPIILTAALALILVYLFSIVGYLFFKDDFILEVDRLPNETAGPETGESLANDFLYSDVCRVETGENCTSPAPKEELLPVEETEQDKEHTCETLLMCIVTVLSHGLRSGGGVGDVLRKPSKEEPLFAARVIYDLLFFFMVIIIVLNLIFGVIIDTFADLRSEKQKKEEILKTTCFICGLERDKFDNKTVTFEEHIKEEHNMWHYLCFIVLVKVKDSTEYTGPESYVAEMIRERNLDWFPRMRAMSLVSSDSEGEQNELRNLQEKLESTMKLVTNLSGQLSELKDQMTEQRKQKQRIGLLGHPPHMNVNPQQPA
Description: Tissue cultures were prepared using standard laboratory practice for the following tissues: human recombinant M1 clone, human recombinant M2 clone, guinea pig striatal membranes, rat cortical membranes, rat striatal membranes, rat forebrain membranes, bovine hippocampal membranes, guinea pig cerebellar membranes, rat kidney membranes, recombinant rat 5HT7 clone, and rat cerebellar membranes.
Inositol Triphosphate (IP3) Binding Assay
Rat cerebellar membranes
Radioligand: [^3 H]IP3 (10-30 Ci/mmol)
Final ligand concentration - [4.0 nM]
D-myo-inositol 1,4,5-triphosphate
Reactions are carried out in 50 mM TRIS-HCl (pH 8.3)
1 mM EDTA at 0° C. for 10 minutes. The reaction is
rapid vacuum filtration onto glass fiber filters.
onto the filters is determined and compared to control
order to ascertain any interactions of test compound with
inositol triphospate binding site.

[5] = cited from earlier work
[6] = test system: Serotonin (Non-Selective); assay: Serotonin (Non-Selective) Binding Assay; details: Rat cortical membranes, [3H]Lysergic acid diethylamide 5.0 nM
[7] = intravenous; cats; cited from earlier work
[8] = target: T4, Serotonin (5HT1A) (Bos taurus, UniProt F6Q2H9); assay: Serotonin (5HT1A) Binding Assay; set-up: species or system Bovine; details: Bovine hippocampal membranes, [3H]-8-OH-DPAT 1.0 nM, read-out: Receptor Binding Activity Percent Inhibition Average (N = 2)
T4 construct: Bovine hippocampal membranes; from tissue; host or cells: bovine hippocampal membranes
T4 sequence (F6Q2H9 1-422): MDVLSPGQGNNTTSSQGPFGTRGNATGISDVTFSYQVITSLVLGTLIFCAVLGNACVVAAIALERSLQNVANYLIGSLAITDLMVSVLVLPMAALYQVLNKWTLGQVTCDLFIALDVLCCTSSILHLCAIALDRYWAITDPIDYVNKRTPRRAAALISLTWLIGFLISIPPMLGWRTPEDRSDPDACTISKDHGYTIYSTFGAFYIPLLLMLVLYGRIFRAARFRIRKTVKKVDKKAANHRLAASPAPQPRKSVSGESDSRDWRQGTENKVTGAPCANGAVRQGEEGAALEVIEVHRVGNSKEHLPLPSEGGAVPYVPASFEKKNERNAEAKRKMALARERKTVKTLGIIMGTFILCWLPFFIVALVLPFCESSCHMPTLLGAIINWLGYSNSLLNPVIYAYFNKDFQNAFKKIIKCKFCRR

[9] = Half-life, bioavailability and blood levels in humans; set-up: species or system human; details: in vivo
[10] = target: T5, GABA uptake site (Rattus norvegicus, UniProt P23978); assay: biochemical; details: Rat cortical membranes, [3H]GABA 3.6 nM, read-out: Receptor Binding Activity Percent Inhibition Average (N = 2)
T5 construct: Rat cortical membranes; from tissue; host or cells: rat cortical membranes

[11] = target: T6, Histamine (H2) (Cavia porcellus, UniProt P47747); assay: Histamine (H2) Binding Assay; set-up: species or system Guinea pig; details: Guinea pig striatal membranes, [3H]Tiotidine 4.0 nM, read-out: Receptor Binding Activity Percent Inhibition Average (N = 2)
T6 construct: Guinea pig striatal membranes; from tissue; host or cells: guinea pig striatal membranes
T6 sequence (P47747 whole entry): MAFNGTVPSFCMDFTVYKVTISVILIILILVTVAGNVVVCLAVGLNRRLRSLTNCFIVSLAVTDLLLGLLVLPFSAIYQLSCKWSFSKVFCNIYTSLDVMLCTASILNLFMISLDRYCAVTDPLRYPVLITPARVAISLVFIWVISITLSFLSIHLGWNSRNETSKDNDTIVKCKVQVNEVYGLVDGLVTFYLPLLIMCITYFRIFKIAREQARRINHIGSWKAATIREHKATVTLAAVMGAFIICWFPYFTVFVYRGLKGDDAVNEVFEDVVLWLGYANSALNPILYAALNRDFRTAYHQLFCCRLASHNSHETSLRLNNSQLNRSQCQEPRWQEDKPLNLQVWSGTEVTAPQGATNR

[12] = intramuscular injections; wide range of doses; squirrel monkeys; cited from earlier work
[13] = target: T7, Opiate (Delta) (Rattus norvegicus, UniProt P33533); assay: Opiate (Delta) Binding Assay; details: read-out: Receptor Binding Activity Percent Inhibition Average (N = 2)
T7 construct: Rat forebrain membranes; from tissue; host or cells: rat forebrain membranes
T7 sequence (P33533 whole entry): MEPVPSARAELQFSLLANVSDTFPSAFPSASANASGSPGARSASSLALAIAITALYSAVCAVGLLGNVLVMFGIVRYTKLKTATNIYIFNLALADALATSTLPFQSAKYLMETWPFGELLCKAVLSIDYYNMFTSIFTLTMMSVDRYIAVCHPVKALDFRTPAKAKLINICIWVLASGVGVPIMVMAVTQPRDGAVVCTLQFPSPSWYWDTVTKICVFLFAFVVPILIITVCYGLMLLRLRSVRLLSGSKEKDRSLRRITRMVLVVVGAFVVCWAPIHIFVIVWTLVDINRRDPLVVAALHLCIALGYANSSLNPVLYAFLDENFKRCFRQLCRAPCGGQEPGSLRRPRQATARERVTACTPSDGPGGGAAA

[14] = target: T8, Human recombinant M2 clone (Homo sapiens, UniProt P08172); assay: Muscarinic--M2 Clone Binding Assay
T8 construct: expressed in transfected cells
T8 sequence (P08172 1-466): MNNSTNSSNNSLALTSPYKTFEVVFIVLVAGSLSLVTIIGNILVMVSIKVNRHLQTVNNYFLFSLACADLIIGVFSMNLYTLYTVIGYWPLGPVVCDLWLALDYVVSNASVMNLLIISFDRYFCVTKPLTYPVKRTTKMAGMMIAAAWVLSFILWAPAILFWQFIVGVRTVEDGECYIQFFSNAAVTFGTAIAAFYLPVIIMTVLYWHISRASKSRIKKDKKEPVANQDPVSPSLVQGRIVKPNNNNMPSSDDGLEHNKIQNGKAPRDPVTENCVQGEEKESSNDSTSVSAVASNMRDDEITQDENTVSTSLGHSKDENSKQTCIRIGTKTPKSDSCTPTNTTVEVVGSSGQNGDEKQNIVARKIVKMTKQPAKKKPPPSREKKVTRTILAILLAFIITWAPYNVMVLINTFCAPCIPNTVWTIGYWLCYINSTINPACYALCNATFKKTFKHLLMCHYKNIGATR

[15] = target: Glycine (Strychnine Insensitive) (Rattus norvegicus, UniProt P35439); assay: biochemical; assay type: binding; details: read-out: Receptor Binding Activity Percent Inhibition Average (N = 2)
[16] = read-out: Receptor Binding Activity Percent Inhibition Average (N = 2)

In the case of CN1C(=O)CCC1c1cccnc1 (single isomer, unassigned) [Cotinine, 1-methyl-5-(3-pyridinyl)-2-pyrrolidionone], the inhibition at 100 µM ([1]; 10^-4 M) is listed as 12%, the inhibition at 1 µM ([1]; 10^-6 M) is listed as 78.5% and the “passage of the blood-brain barrier” value [2] is listed as “pass the blood-brain barrier”. For the same molecule, the “passage of the blood-brain barrier” value ([2]; listed as cotinine) was “capable of passing the blood-brain barrier”, the inhibition at 100 µM ([3]; 10^-4 M) was 15.7% and the inhibition at 1 µM ([3]; 10^-6 M) was 11.9%. For the same molecule, the inhibition at 100 µM ([4]; 10^-4 M) was 8.3%, the inhibition at 1 µM ([4]; 10^-6 M) was 4.8% and the terminal elimination half-life ([5]; human, in vivo) was “about 16 hours”. The half-life ([5]; in the human, in vivo) was 16 to 17 h, the oral bioavailability ([5]; in vivo, po) was “complete” and the terminal elimination half-life ([5]; in vivo) was “sixteen”. For the same molecule, the “blood concentration in smokers” value ([5]; nicotine: one-pack-a-day smoker, cotinine: one-half-pack-a-day smoker) was “about 300 ng/ml”, the concentration ([5]; read-out: blood concentration in smokers, nicotine: one-pack-a-day smoker, cotinine: one-half-pack-a-day smoker) was ~2 µM and the “Receptor Binding Activity Percent Inhibition Average (N = 2)” value ([6]; 10^-4 M) was 12.1%. For the same molecule, the “Receptor Binding Activity Percent Inhibition Average (N = 2)” value ([6]; 10^-6 M) was 4.6%, the “EEG activity and behavioral arousal” value [7] was “increases only slightly” and the blood pressure [7] was “only a slight decrease”. The inhibition at 100 µM ([8]; 10^-4 M) was 1.4%, the inhibition at 1 µM ([8]; 10^-6 M) was 1.1% and the “duration of effectiveness relative to nicotine, due to greater half-life” value [9] was “about eight”. For the same molecule, the inhibition at 100 µM ([10]; 10^-4 M) was 7.4%, the inhibition at 1 µM ([10]; 10^-6 M) was 13.9% and the inhibition at 100 µM ([11]; 10^-4 M) was -1.4%. The inhibition at 1 µM ([11]; 10^-6 M) was 9.2%, the “rates of responding on fixed interval schedules of reinforcement” value [12] was “increased rates of responding” and the inhibition at 1 µM [13] was 8.3%. The inhibition at 100 µM [13] was 10%, the “effectiveness in binding relative to an equal concentration of nicotine, binding expressed as percent inhibition” value ([14]; muscarinic-2 receptor, human tissue) was “about five” and the inhibition at 1 µM [14, 16] was 22.3%. The inhibition at 100 µM [14, 16] was 21.6%, the inhibition at 1 µM [15] was 10.9% and the inhibition at 100 µM [15] was -0.6%.
